Measurements published in US10717968B2, “Polymerases for nucleotide analogue incorporation” (Pacific Biosciences of California, Inc., priority 2005, dated 2020).

Experiments:
Type in all cases: biochemical
A568dC4P [1] = assay: Assay with a single analogue at low concentration (10 μM) and three native nucleotides, A568dC4P; conditions: single analogue at 10 μM and three native nucleotides
Procedure: (§1) The Φ29 DNA polymerase (parental enzyme or mutant) was preincubated with DNA template (72 nucleotide circular DNA including mostly repetitive sequence AGTC) with annealed DNA primer. The preincubation mix includes three native nucleotides (dTTP, dATP and dGTP) and a terminal labeled nucleotide analogue (A488dC4P or A568dC4P) at 10 μM concentration. After a short preincubation, the reaction was started with MnCl2. The reaction was stopped with EDTA, and the products were separated using agarose gel electrophoresis and stained with SYBR Gold (Invitrogen). The average length of the DNA generated with DNA polymerase was determined and used to estimate the polymerization rate. See, e.g., Table 2 Columns G and H.

[2] = system: Alexa488-O-dA4P, FAM-Alexa532-O-dG4P, FAM-Alexa594-O-dT4P, Alexa633-O-dC4P; assay: Screening: rate with set of four nucleotide analogues; conditions: four analogues at 10 μM each, 1 mM MnCl2
A488dC4P [3] = assay: Assay with a single analogue at low concentration (10 μM) and three native nucleotides, A488dC4P; conditions: single analogue at 10 μM and three native nucleotides
Procedure: as §1

[4] = system: A488dA4P, A633dC4P, A546dG4P, A594dT4P; assay: Assay with four terminally labeled nucleotide analogs; conditions: four terminally labeled analogs all at 10 μM
Procedure: Polymerization rate (bases/min) with four analogues at 10 μM (A488dA4P, A633dC4P, A546dG4P and A594dT4P) and circular template (AGTC, a 72mer circular template largely consisting of a repeating AGTC motif) is determined.
The procedure is basically as described above in the section entitled “Assay with a single analogue at low concentration (10 μM) and three native nucleotides,” with the exception that in this assay all nucleotides are terminally labeled (A488dA4P, A633dC4P, A546dG4P, A594dT4P all at 10 μM). See, e.g., Table 2 Column I.

[5] = system: DNA template (72 nucleotide circular DNA) with annealed DNA primer; assay: Processivity assay; conditions: dNTP, MnCl2, heparin trap, 20 min; 1.0 minus Poff
From the text: The processivity (dissociation/kb) of the polymerase is estimated in a primer extension reaction performed in the presence of “Trap” (unlabeled competitor DNA or heparin). The processivity assay is designed to select mutants that retain the capability to synthesize a long DNA product in a continuous polymerization run (without polymerization reinitiation) with natural nucleotides. Mutants with a significant decrease in processivity are not selected for the next step.
The Φ29 DNA polymerase (parental enzyme or mutant) was preincubated with DNA template (72 nucleotide circular DNA including mostly repetitive sequence AGTC) with annealed DNA primer. After a short preincubation, the reaction was started with a starting mix including MnCl2, dNTP and heparin. Including the heparin in the reaction prevents polymerization from reinitiating after the polymerase dissociates from the template/primer, so that all generated DNA products are a result of continuous polymerization runs. After 20 min incubation, the reaction was stopped with EDTA and the products were separated using agarose gel electrophoresis and stained with SYBR Gold (Invitrogen). The DNA products were analyzed basically as described in Bibillo A, Eickbush T H. J Biol Chem. 2002 Sep. 20; 277(38):34836-45, Epub 2002 Jul. 5. The results were fitted with single exponential equation A*exp(−Poff*kb) where A is amplitude, Poff is the probability of premature polymerase dissociation, and kb is DNA length (1000 nucleotides). The probability of chain elongation (processivity) can be readily calculated by subtracting the Poff value from 1.0. See, e.g., Table 2 Column J.

A633dC4P = assay: Screening: rate with A633dC4P and dA, dG, dTTP; conditions: for Rate High: 25 μM A633dC4P with 20 μM dA; for Ratio (Low/High): (rate at 5 μM A633dC4P)/(rate at 25 μM A633dC4P), each with 20 μM dA, 1 mM MnCl2, higher ratio = lower Km
A488dC4P [6] = assay: Nucleotide analogue concentration dependence of the polymerization rate, A488dC4P; conditions: circular AGTC template; dTTP, dATP, dGTP 20 μM each
Procedure: (§2) The most promising polymerase mutants are characterized by determination of the polymerization rate and Km for A488dC4P and A568dC4P and a subset of natural nucleotides (dATP, dGTP and dTTP), using a circular template (AGTC). Velocity is measured at several different concentrations of the analogs, A488dC4P (a representative good substrate) and A568dC4P (a representative less preferred substrate).
(§3) The Φ29 DNA polymerase (parental enzyme or mutant) was preincubated with a DNA template (72 nucleotide circular DNA including mostly repetitive sequence AGTC) with annealed DNA primer. The preincubation mix includes also three native nucleotides (dTTP, dATP and dGTP 20 μM each) and various concentrations of the terminally labeled analogue (A488dC4P or A568dC4P). All subsequent steps were basically as described above in the section entitled “Assay with a single analogue at low concentration (10 μM) and three native nucleotides.” An average length of the DNA products generated with DNA polymerase at an individual analogue concentration was determined, and the results were fitted with the equation k=kel*[S]*(Kd+[S])^−1 where k is the observed polymerization rate, kel is the polymerization rate at saturating substrate concentration (kel measures incorporation of multiple residues), and [S] is substrate concentration. See, e.g., Table 2 Columns C, D, E, and F.

dTTP, dATP, dGTP = assay: Assay with three native nucleotides (dGTP, dTTP and dATP); conditions: three native nucleotides at 20 μM; circular template, no G residues
Procedure: as §1
The Φ29 DNA polymerase (parental enzyme or mutant) was preincubated with DNA template (circular DNA including mostly repetitive sequence CAT, no G residues) with annealed DNA primer; the preincubation mix includes three native nucleotides (dTTP, dATP and dGTP). All subsequent steps were basically as described above in the section entitled “Assay with a single analogue at low concentration (10 μM) and three native nucleotides.” See, e.g., Table 2 Column B.

[7] = system: natural (native) nucleotides; assay: Initial characterization: specific activity with natural (native) nucleotides
Procedure: The recombinant polymerase is initially evaluated on the quality of the protein preparation and basic catalytic activity. The polymerase's activity is analyzed with natural (native) nucleotides, and its specific activity (units/mg) is determined. Only catalytically competent mutants are selected for the next steps.

A568dC4P [8] = assay: Nucleotide analogue concentration dependence of the polymerization rate, A568dC4P; conditions: circular AGTC template; dTTP, dATP, dGTP 20 μM each
Procedure: as §2, §3

Substance	A568dC4P, V at 10 μM (A568dC4P [1])	Hz Rate [2] [Hz]	A488dC4P, V at 10 μM (A488dC4P [3])	A488dA4P, A633dC4P, A546dG4P, A594dT4P, V at 10 μM [4]	Processivity [5] [kb^−1]	Rate High (A633dC4P)	Ratio (Low/High) (A633dC4P)	A488dC4P, kel (A488dC4P [6]) [bp/min]	Km (A488dC4P [6]) [µM]	dTTP, dATP, dGTP (no G fork) V at 20 μM (dTTP, dATP, dGTP)	Specific Activity [7]	A568dC4P, kel (A568dC4P [8])	Km (A568dC4P [8]) [µM]
His-N62D: His-tagged N62D Phi 29 DNA polymerase; parental enzyme [reference compound]	237	2.7	391	68	0.9754	373.2	0.362	1020	21	750	–	–	–
L384R: His-tagged Phi29 polymerase with L384R and N62D mutations (SEQ ID NOs:8, 29)	–	−0	–	–	–	79.6	0.768	–	–	–	–	–	–
His-K135A-N62D: His-tagged Phi 29 polymerase with K135A and N62D mutations (SEQ ID NOs:3, 24)	154	1.6	292	43	0.9801	272.0	0.412	880	24	840	12,454,000 units/mg	–	–
T15I: His-tagged Phi29 polymerase with T15I mutation only, no background mutation (Table 5 r13)	–	3.0	–	–	–	416.5	0.355	–	–	–	–	–	–
D12A: GST-His tagged Phi29 polymerase with exonuclease-reducing D12A mutation, no background mutation [reference compound]	–	1.2	–	–	–	55.3	0.888	–	–	–	–	–	–
E375Q: His-tagged Phi29 polymerase with E375Q and background N62D mutation	–	6.3	–	–	–	531.6	0.356	–	–	–	–	–	–
T15I N62D: His-tagged Phi29 polymerase with T15I and background N62D mutation (Table 5 r22)	–	0.0	–	–	–	105.9	0.726	–	–	–	–	–	–
E375A: His-tagged Phi29 polymerase with E375A and background N62D mutation	–	5.8	–	–	–	465.9	0.383	–	–	–	–	–	–
His-E486A-N62D: His-tagged Phi 29 polymerase with E486A and N62D mutations (SEQ ID NOs:9, 30)	118	1.0	303	15	0.9875	152.5	0.441	–	–	1690	4,133,000 units/mg	–	–
His-E486D-N62D: His-tagged Phi 29 polymerase with E486D and N62D mutations (SEQ ID NOs:10, 31)	134	0.9	220	15	0.9885	142.0	0.467	–	–	–	11,634,000 units/mg	–	–
His-K512A-N62D: His-tagged Phi 29 polymerase with K512A and N62D mutations (SEQ ID NOs:11, 32)	196	1.4	359	34	0.9821	347.7	0.335	–	–	–	16,073,000 units/mg	–	–
GST-N62D: GST-His-S tagged Phi 29 DNA polymerase with exonuclease-reducing N62D mutation (SEQ ID NO:2); parental enzyme [reference compound]	236	2.8	346	65	0.9799	349.3	0.355	1200	20	780	–	1660	74
